Patent US9682908B2, “Method for producing butanol using extractive fermentation” (BUTAMAX ADVANCED BIOFUELS LLC, priority 2013, dated 2017)
≈ marks a conversion by molar mass, not a printed value. Where two headings read alike, the source gives them in different places.

Legend:
[1] = tested on: genetically modified isobutanolagen yeast strain PNY2310; format: cell-based; conditions: for Glucose: Example 9, With Solvent
[2] = Equilibrium moisture content of solvent; format: physicochemical; conditions: Table 1
Source text: The term “moisture content” as used herein refers to the equilibrium saturation of water contained by the solvent, whether or not product alcohol, e.g., isobutanol is present. At times the term “equilibrium” is used in conjunction with “moisture content” to indicate “moisture content” is related to a particular set of conditions, e.g., temperature, pressure, and so on. As will, be apparent, moisture content commonly refers to a maximum amount of water that can be dissolve by the solvent/solvent mixture given a certain set of conditions.
While the solvent mixture or portions thereof can be immiscible in water, e.g., on the order of 10^−7, in some instances one or more of the solvents can be comparatively weakly miscible in water. It is also to be appreciated, that water can be miscible (e.g., somewhat miscible) in the solvent mixture and/or miscible in one or more solvents included in the solvent mixture. COFA in some examples can absorb moisture, or water, such that the COFA is “wet”. A solvent's tendency to absorb moisture, e.g., act as a solvent, in some examples, can differ from that solvent's ability to solvate in water, e.g., its hydrophobicity. A table of various solvents and their respective characteristics is reproduced directly below.

[3] = Isobutanol partitioning between solvent and water (Kd, butanol partition coefficient)
butanologen = assay: Biocompatibility with a butanologen (discussion of examples); format: cell-based
[4] = tested on: genetically modified isobutanologen yeast strain; assay: Biocompatibility shake flask, OD and glucose (Examples 2, 3); format: cell-based; conditions: for Glucose / OD: Example 3, With Solvent
[5] = tested on: genetically modified isobutanolagen yeast strain (PNY2141); format: cell-based; conditions: for Glucose, gpl Grams per Liter / OD: With solvent
ethanol red yeast strain = assay: Biocompatibility shake flask, glucose (Example 12); format: cell-based
Sacchromyces Cerevisiae = conditions: in vitro; Bennis et al. 2004; cited from earlier work
[6] = tested on: naturally occurring ethanologen yeast strain; assay: Biocompatibility shake flask, glucose uptake (Example 1A); format: cell-based; conditions: 32° C.
[7] = aqueous 2.0 wt % isobutanol, half its mass of solvent
[8] = aqueous 2.0 wt % isobutanol, half its mass of solvent (5 g/2.5 g or 1 g/0.5 g), HPLC
[9] = 10 ml aqueous 6 wt % isobutanol + 1 ml solvent
[10] = 10 ml aqueous 6 wt % isobutanol + 1 ml solvent, gas chromatography
[11] = aqueous 2.0 wt % isobutanol, equal mass of solvent
[12] = aqueous 2.0 wt % isobutanol, equal mass of solvent (3 g/3 g or 5 g/5 g), HPLC
[13] = time 0 hr, 10 ml solvent on 20 ml medium, 32° C.

CCCCN(CCCC)C(=O)N(CCCC)CCCC [Tetrabutylurea, tetrabutylurea]
glucose concentration versus flask without solvent ([1]; Example 9): No significant difference
Glucose ([1]; time 0 hr, 0.5 OD PNY2310, 10 ml solvent on 20 ml medium, 32° C.): 28 g/L
Glucose ([1]; time 4 hr): 25 g/L
Glucose ([1]; time 8 hr): 14 g/L
Glucose ([1]; time 12 hr): 0 g/L
Moisture Content (wt %) [2]: 0.9 wt %
isobutanol in organic layer, calculated by mass balance [3, 7]: 3.06 wt %
mass partitioning coefficient [3, 7]: 7.35
isobutanol in aqueous layer [3, 8]: 0.417 wt %
biocompatibility with a butanologen (found in testing) (butanologen): biocompatible with a butanologen

CC(CC(C)(C)C)CC(C)(C)CC(C)(C)C (stereo not drawn) [Isohexadecane, 2,2,4,4,6,8,8-heptamethylnonane]
Moisture Content (wt %) [2]: <0.01 wt %

CC(CC(C)(C)C)CC(C)(C)C [isododecane, 2,2,4,6,6-pentamethylheptane]
Moisture Content (wt %) [2]: <0.01 wt %
isobutanol in aqueous layer [3, 9]: 1.39 mole %
isobutanol in organic layer [3, 9]: 17.24 mole %
mass partitioning coefficient [3, 9]: 1.525
molar partitioning coefficient [3, 9]: 12.4
isobutanol in aqueous layer [3, 10]: 5.45 wt %
isobutanol in organic layer [3, 10]: 8.31 wt %
isobutanol in organic layer, calculated by mass balance [3, 11]: 0.40 wt %
mass partitioning coefficient [3, 11]: 0.25
isobutanol in aqueous layer [3, 12]: 1.60 wt %
biocompatibility with a butanologen (found in testing) (butanologen): biocompatible with a butanologen
growth (glucose uptake and OD) versus flask without solvent ([4]; Example 3): No significant difference in growth
Glucose ([4]; time 0 hr): 32 g/L
OD ([4]; time 0 hr, 32 g/liter glucose, 10 ml solvent on 20 ml medium, 32° C.): 0.5
Glucose ([4]; time 7 hr): 32 g/L
OD ([4]; time 7 hr): 0.9
Glucose ([4]; time 13 hr): 25 g/L
OD ([4]; time 13 hr): 1.6
Glucose ([4]; time 23 hr): 5 g/L
OD ([4]; time 23 hr): 4.9
Glucose ([4]; time 29 hr): 0.1 g/L
OD ([4]; time 29 hr): 5.0

CC(C)c1cccc(C(C)C)c1 [1,3-diisopropylbenzene]
consumption of glucose in presence of solvent ([5]; Example 6A): No significant consumption of glucose
Glucose (grams per liter, gpl) ([5]; Example 6A, time 0 hours, 1.0 OD PNY2141, 10 ml solvent on 20 ml medium, 32° C.): 30 gpl
Glucose (grams per liter, gpl) ([5]; Example 6A, time 6 hours): 30 gpl
Glucose (grams per liter, gpl) ([5]; Example 6A, time 11 hours): 30 gpl
Glucose (grams per liter, gpl) ([5]; Example 6A, time 16 hours): 28 gpl
Glucose (grams per liter, gpl) ([5]; Example 6A, time 24 hours): 29 gpl
biocompatibility with a butanologen (found in testing) (butanologen): not to be biocompatible

CCCCC(CC)COP(=O)(OCC(CC)CCCC)OCC(CC)CCCC (stereo not drawn) [tris(2-ethylhexyl) phosphate]
inhibition in glucose consumption (ethanol red yeast strain; Example 12): No significant inhibition in glucose consumption
Glucose (grams per liter, gpl) (ethanol red yeast strain; time 0 hours, 1.1 OD, 10 ml solvent on 20 ml medium, 32° C.): 17 gpl
Glucose (grams per liter, gpl) (ethanol red yeast strain; time 5 hours): 0 gpl
Glucose (grams per liter, gpl) (ethanol red yeast strain; time […]): 11.5 gpl

Cc1ccc(C(C)C)cc1O [Carvacrol, carvacrol]
Moisture Content (wt %) [2]: 2 wt %
isobutanol in organic layer, calculated by mass balance [3, 7]: 3.42 wt %
mass partitioning coefficient [3, 7]: 15.5
isobutanol in aqueous layer [3, 8]: 0.22 wt %

CC(C)CC(C)CC(O)CC(C)C (stereo not drawn) [Isododecanol]
Moisture Content (wt %) [2]: 0.2 wt %
isobutanol in organic layer, calculated by mass balance [3, 7]: 2.87 wt %
mass partitioning coefficient [3, 7]: 5.42
isobutanol in aqueous layer [3, 8]: 0.53 wt %

Cc1ccc(C(C)C)c(O)c1 [thymol]
MFC (minimum fungal concentration) (Sacchromyces Cerevisiae): 1.8 mM (≈ 270 µg/mL)
MIC, minimum inhibitory concentration (Sacchromyces Cerevisiae): 1.5 mM (≈ 225 µg/mL)

triisobutylene
glucose uptake versus flask without solvent ([6]; 4 hours): No significant difference in glucose uptake
glucose in aqueous phase ([6]; after 4 hours, start 21 g/liter glucose, 0.5 OD, 10 ml solvent on 20 ml medium): less than 0.1 g/liter
isobutanol in aqueous layer [3, 9]: 1.33 mole %
isobutanol in organic layer [3, 9]: 18.39 mole %
mass partitioning coefficient [3, 9]: 1.71
molar partitioning coefficient [3, 9]: 13.8
isobutanol in aqueous layer [3, 10]: 5.28 wt %
isobutanol in organic layer [3, 10]: 9.03 wt %
isobutanol in organic layer, calculated by mass balance [3, 11]: 0.47 wt %
mass partitioning coefficient [3, 11]: 0.31
isobutanol in aqueous layer [3, 12]: 1.53 wt %
growth (OD and glucose) versus flask without solvent ([5]; Example 1B, PNY2141, 32° C.): Some impedance to growth
Glucose, gpl Grams per Liter [5, 13]: 28 gpl
OD [5, 13]: 0.5
Glucose, gpl Grams per Liter ([5]; time 6 hr): 27 gpl
OD ([5]; time 6 hr): 0.6
Glucose, gpl Grams per Liter ([5]; time 10 hr): 26 gpl
OD ([5]; time 10 hr): 0.8
Glucose, gpl Grams per Liter ([5]; time 19 hr): 22 gpl
OD ([5]; time 19 hr): 1.6
Glucose, gpl Grams per Liter ([5]; time 23 hr): 21 gpl
OD ([5]; time 23 hr): 2.1
Glucose, gpl Grams per Liter ([5]; time 30 hr): 14 gpl
OD ([5]; time 30 hr): 2.8
Glucose, gpl Grams per Liter ([5]; time 35 hr): 10 gpl
OD ([5]; time 35 hr): 3.4

CCCCC(CC)CO (stereo not drawn) [2-ethylhexanol]
Moisture Content (wt %) [2]: 2 wt %

CCN(CC)C(=O)c1cccc(C)c1 [DEET, diethyl m-toluamide]
isobutanol in organic layer, calculated by mass balance [3, 7]: 3.17 wt %
mass partitioning coefficient [3, 7]: 9.2
isobutanol in aqueous layer [3, 8]: 0.34 wt %
